Molecules are shown by their SMILES. pKi: −log10 of the molar value.

In this assay the target is T1, Calmodulin-sensitive adenylate cyclase (Bacillus anthracis, UniProt P40136).
T1 sequence (P40136 whole entry): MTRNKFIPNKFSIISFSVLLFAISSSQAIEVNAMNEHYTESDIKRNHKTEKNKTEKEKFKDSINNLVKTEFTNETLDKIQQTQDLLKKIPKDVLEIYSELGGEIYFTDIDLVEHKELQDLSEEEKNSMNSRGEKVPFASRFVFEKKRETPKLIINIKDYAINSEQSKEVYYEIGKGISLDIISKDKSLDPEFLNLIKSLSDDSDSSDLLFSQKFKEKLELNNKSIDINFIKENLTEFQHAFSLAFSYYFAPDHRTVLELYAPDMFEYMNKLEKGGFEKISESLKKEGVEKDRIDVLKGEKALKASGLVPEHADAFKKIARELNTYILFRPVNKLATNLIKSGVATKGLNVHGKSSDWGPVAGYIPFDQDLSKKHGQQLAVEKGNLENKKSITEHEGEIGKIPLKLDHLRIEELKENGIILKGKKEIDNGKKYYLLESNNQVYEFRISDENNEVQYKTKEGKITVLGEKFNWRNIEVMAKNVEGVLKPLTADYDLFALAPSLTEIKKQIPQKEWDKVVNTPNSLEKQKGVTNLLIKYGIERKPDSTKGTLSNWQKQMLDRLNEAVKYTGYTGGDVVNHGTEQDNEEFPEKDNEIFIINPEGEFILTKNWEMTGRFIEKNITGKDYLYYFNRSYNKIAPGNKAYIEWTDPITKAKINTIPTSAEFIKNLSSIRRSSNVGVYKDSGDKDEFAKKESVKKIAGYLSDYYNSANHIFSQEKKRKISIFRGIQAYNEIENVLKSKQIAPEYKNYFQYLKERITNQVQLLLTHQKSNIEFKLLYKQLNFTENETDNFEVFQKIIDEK
The assay is described as follows: Inhibition of Bacillus anthracis edema factor catalytic domain by radiometric assay.

As for `CNc1ccccc1C(=O)O[C@H]1[C@@H](O)[C@H](n2cnc3c(N)ncnc32)O[C@@H]1CO[P@@](=O)(O)O[P@](=O)(O)OP(=O)(O)O`, the pKi was 6.01.
`CNc1ccccc1C(=O)O[C@@H]1[C@H](O)[C@@H](COP(=O)(O)OP(=O)(O)OP(=O)(O)O)O[C@H]1n1ccc(N)nc1=O` showed a pKi of 7.00.
The result for `CNc1ccccc1C(=O)N[C@@H]1[C@H](O)[C@@H](COP(=O)(O)OP(=O)(O)C(Cl)(Cl)P(=O)(O)O)O[C@H]1n1cnc2c(N)ncnc21` reads 5.05.

As usually defined, the pKi is the Ki on a negative log10 scale, so that one unit is a factor of ten.
